HELM strings list units from the 5' end as sugar, base in round brackets, then linkage (d deoxyribose, r ribose, m 2'-O-methyl, p phosphodiester). Strings are as the collection lists them; they lack the last nucleoside at the 3' end of the tested compound. [moe] = 2'-O-(2-methoxyethyl) (MOE); [sp] = phosphorothioate linkage; [m5C] = 5-methylcytosine

The record followed here is the OligoGym collection.

This data set addresses SCN2A. Put plainly: mouse, dose not given. Particulars: ASO.
“RNA1{[moe](A)[sp].[moe]([m5C])p.[moe]([m5C])p.[moe](G)p.[moe](A)p.d(A)[sp].d(T)[sp].d(T)[sp].d([m5C])[sp].d(T)[sp].d(A)[sp].d(T)[sp].d(T)[sp].d(T)[sp].d(T)[sp].[moe](A)p.[moe](T)p.[moe](A)[sp].[moe](A)}$$$$ (last 3' nucleoside missing)” yielded a 3 h FOB score of 1.67 score 0-7.
“RNA1{[moe](A)[sp].[moe]([m5C])p.[moe]([m5C])p.[moe](G)p.[moe](T)p.d([m5C])[sp].d(T)[sp].d([m5C])[sp].d(T)[sp].d(T)[sp].d(T)[sp].d([m5C])[sp].d(T)[sp].d(T)[sp].d(A)[sp].[moe](T)p.[moe](T)p.[moe](T)[sp].[moe]([m5C])}$$$$ (last 3' nucleoside missing)” displayed a 3 h FOB score of 7 score 0-7.
“RNA1{[moe](A)[sp].[moe]([m5C])p.[moe]([m5C])p.[moe]([m5C])p.[moe](A)[sp].d(G)[sp].d(T)[sp].d(T)[sp].d(T)[sp].d(T)[sp].d(T)[sp].d(T)[sp].d([m5C])[sp].[moe](A)p.[moe](T)p.[moe](T)[sp].[moe](G)}$$$$ (last 3' nucleoside missing)” came in with a 3 h FOB score of 1.33 score 0-7.
The value for “RNA1{[moe](A)[sp].[moe]([m5C])p.[moe]([m5C])p.[moe]([m5C])p.[moe](A)p.[moe](G)[sp].d(T)[sp].d(T)[sp].d(T)[sp].d(T)[sp].d(T)[sp].d(T)[sp].d([m5C])[sp].d(A)[sp].[moe](T)p.[moe](T)[sp].[moe](G)}$$$$ (last 3' nucleoside missing)” was 2 score 0-7; that for “RNA1{[moe](A)[sp].[moe]([m5C])p.[moe]([m5C])p.[moe]([m5C])p.[moe](A)p.d(G)[sp].d(T)[sp].d(T)[sp].d(T)[sp].d(T)[sp].d(T)[sp].d(T)[sp].d([m5C])[sp].d(A)[sp].d(T)[sp].[moe](T)p.[moe](G)p.[moe]([m5C])[sp].[moe](A)}$$$$ (last 3' nucleoside missing)” was 0 score 0-7; that for “RNA1{[moe](G)[sp].[moe](A)p.[moe](A)p.[moe](A)p.[moe](G)p.d(T)[sp].d(A)[sp].d(G)[sp].d(T)[sp].d(A)[sp].d([m5C])[sp].d([m5C])[sp].d(A)[sp].d(T)[sp].d(T)[sp].[moe]([m5C])p.[moe]([m5C])p.[moe]([m5C])[sp].[moe](A)}$$$$ (last 3' nucleoside missing)” was 1.67 score 0-7.
Turning to “RNA1{[moe](G)[sp].[moe](A)p.[moe](A)p.[moe](T)p.[moe](T)p.[moe]([m5C])p.d(T)[sp].d(A)[sp].d(T)[sp].d(T)[sp].d(T)[sp].d(T)[sp].d(A)[sp].d(T)[sp].d(A)[sp].d(A)[sp].[moe](A)p.[moe](T)[sp].[moe](G)}$$$$ (last 3' nucleoside missing)”, the 3 h FOB score was 1 score 0-7.
The value for “RNA1{[moe](G)[sp].[moe](A)p.[moe](A)p.[moe](T)p.[moe](T)p.d([m5C])[sp].d(T)[sp].d(A)[sp].d(T)[sp].d(T)[sp].d(T)[sp].d(T)[sp].d(A)[sp].d(T)[sp].d(A)[sp].[moe](A)p.[moe](A)p.[moe](T)[sp].[moe](G)}$$$$ (last 3' nucleoside missing)” was 1 score 0-7; that for “RNA1{[moe](G)[sp].[moe](A)p.[moe](A)p.[moe](T)p.d(T)[sp].d([m5C])[sp].d(T)[sp].d(A)[sp].d(T)[sp].d(T)[sp].d(T)[sp].d(T)[sp].d(A)[sp].d(T)[sp].[moe](A)p.[moe](A)p.[moe](A)p.[moe](T)[sp].[moe](G)}$$$$ (last 3' nucleoside missing)” was 0.67 score 0-7; that for “RNA1{[moe](G)[sp].[moe](A)p.[moe](G)p.[moe](A)p.[moe](G)p.d(A)[sp].d(T)[sp].d(T)[sp].d(G)[sp].d([m5C])[sp].d(T)[sp].d(T)[sp].d(T)[sp].d([m5C])[sp].d([m5C])[sp].[moe]([m5C])p.[moe](T)p.[moe](T)[sp].[moe](T)}$$$$ (last 3' nucleoside missing)” was 1.33 score 0-7.
The substance “RNA1{[moe](G)[sp].[moe](A)p.[moe](G)p.[moe](A)p.[moe](T)p.d(T)[sp].d(G)[sp].d([m5C])[sp].d(T)[sp].d(T)[sp].d(T)[sp].d([m5C])[sp].d([m5C])[sp].d([m5C])[sp].d(T)[sp].[moe](T)p.[moe](T)p.[moe](A)[sp].[moe](T)}$$$$ (last 3' nucleoside missing)” yielded a 3 h FOB score of 1 score 0-7.
Regarding “RNA1{[moe](G)[sp].[moe](A)p.[moe]([m5C])p.[moe](A)p.[moe](T)p.d(A)[sp].d(T)[sp].d(T)[sp].d(T)[sp].d(T)[sp].d(T)[sp].d([m5C])[sp].d(T)[sp].d(A)[sp].d([m5C])[sp].[moe](A)p.[moe]([m5C])p.[moe](T)[sp].[moe](G)}$$$$ (last 3' nucleoside missing)”, the 3 h FOB score was determined as 1.67 score 0-7.
“RNA1{[moe](G)[sp].[moe](A)p.[moe]([m5C])p.[moe](A)p.d(T)[sp].d(A)[sp].d(T)[sp].d(T)[sp].d(T)[sp].d(T)[sp].d(T)[sp].d([m5C])[sp].d(T)[sp].d(A)[sp].[moe]([m5C])p.[moe](A)p.[moe]([m5C])p.[moe](T)[sp].[moe](G)}$$$$ (last 3' nucleoside missing)”: the 3 h FOB score stood at 1 score 0-7.
In turn, “RNA1{[moe](G)[sp].[moe](A)p.[moe]([m5C])p.[moe]([m5C])p.[moe](A)p.[moe]([m5C])p.d(G)[sp].d([m5C])[sp].d(T)[sp].d(T)[sp].d(A)[sp].d([m5C])[sp].d(A)[sp].d(T)[sp].d([m5C])[sp].d(A)[sp].[moe](A)p.[moe](A)[sp].[moe]([m5C])}$$$$ (last 3' nucleoside missing)” displayed a 3 h FOB score of 0 score 0-7.
Substance “RNA1{[moe](G)[sp].[moe](A)p.[moe]([m5C])p.[moe]([m5C])p.[moe](G)p.[moe](A)p.d(A)[sp].d(T)[sp].d(T)[sp].d([m5C])[sp].d(T)[sp].d(A)[sp].d(T)[sp].d(T)[sp].d(T)[sp].d(T)[sp].[moe](A)p.[moe](T)[sp].[moe](A)}$$$$ (last 3' nucleoside missing)” gave a 3 h FOB score of 0 score 0-7.
Turning to “RNA1{[moe](G)[sp].[moe](A)p.[moe]([m5C])p.[moe]([m5C])p.[moe](G)p.[moe](T)p.d([m5C])[sp].d(T)[sp].d([m5C])[sp].d(T)[sp].d(T)[sp].d(T)[sp].d([m5C])[sp].d(T)[sp].d(T)[sp].d(A)[sp].[moe](T)p.[moe](T)[sp].[moe](T)}$$$$ (last 3' nucleoside missing)”, the 3 h FOB score is 0 score 0-7.
To “RNA1{[moe](G)[sp].[moe](A)p.[moe]([m5C])p.[moe]([m5C])p.[moe](G)p.d(A)[sp].d(A)[sp].d(T)[sp].d(T)[sp].d([m5C])[sp].d(T)[sp].d(A)[sp].d(T)[sp].d(T)[sp].d(T)[sp].[moe](T)p.[moe](A)p.[moe](T)[sp].[moe](A)}$$$$ (last 3' nucleoside missing)” belongs 1 score 0-7.
The value for “RNA1{[moe](G)[sp].[moe](A)p.[moe]([m5C])p.[moe]([m5C])p.[moe](G)p.d(T)[sp].d([m5C])[sp].d(T)[sp].d([m5C])[sp].d(T)[sp].d(T)[sp].d(T)[sp].d([m5C])[sp].d(T)[sp].d(T)[sp].[moe](A)p.[moe](T)p.[moe](T)[sp].[moe](T)}$$$$ (last 3' nucleoside missing)” was 0 score 0-7; that for “RNA1{[moe](G)[sp].[moe](A)p.[moe]([m5C])p.[moe]([m5C])p.d(A)[sp].d([m5C])[sp].d(G)[sp].d([m5C])[sp].d(T)[sp].d(T)[sp].d(A)[sp].d([m5C])[sp].d(A)[sp].d(T)[sp].[moe]([m5C])p.[moe](A)p.[moe](A)p.[moe](A)[sp].[moe]([m5C])}$$$$ (last 3' nucleoside missing)” was 4 score 0-7; that for “RNA1{[moe](G)[sp].[moe](A)p.[moe]([m5C])p.[moe]([m5C])p.d(G)[sp].d(A)[sp].d(A)[sp].d(T)[sp].d(T)[sp].d([m5C])[sp].d(T)[sp].d(A)[sp].d(T)[sp].d(T)[sp].[moe](T)p.[moe](T)p.[moe](A)p.[moe](T)[sp].[moe](A)}$$$$ (last 3' nucleoside missing)” was 0 score 0-7.
To “RNA1{[moe](G)[sp].[moe](A)p.[moe]([m5C])p.[moe]([m5C])p.d(G)[sp].d(T)[sp].d([m5C])[sp].d(T)[sp].d([m5C])[sp].d(T)[sp].d(T)[sp].d(T)[sp].d([m5C])[sp].d(T)[sp].[moe](T)p.[moe](A)p.[moe](T)p.[moe](T)[sp].[moe](T)}$$$$ (last 3' nucleoside missing)” belongs 0 score 0-7; to “RNA1{[moe](G)[sp].[moe](G)p.[moe](A)p.[moe](T)p.[moe](A)p.d(G)[sp].d(T)[sp].d(G)[sp].d([m5C])[sp].d(T)[sp].d([m5C])[sp].d([m5C])[sp].d(A)[sp].d(T)[sp].d(A)[sp].[moe](G)p.[moe]([m5C])p.[moe]([m5C])[sp].[moe](A)}$$$$ (last 3' nucleoside missing)”, 2 score 0-7; to “RNA1{[moe](G)[sp].[moe](G)p.[moe](A)p.[moe]([m5C])p.d([m5C])[sp].d(G)[sp].d(T)[sp].d([m5C])[sp].d(T)[sp].d([m5C])[sp].d(T)[sp].d(T)[sp].d(T)[sp].d([m5C])[sp].[moe](T)p.[moe](T)p.[moe](A)p.[moe](T)[sp].[moe](T)}$$$$ (last 3' nucleoside missing)”, 1 score 0-7.
In the case of “RNA1{[moe](G)[sp].[moe](G)p.[moe](G)p.[moe](A)p.[moe](T)p.d(A)[sp].d(G)[sp].d(T)[sp].d(G)[sp].d([m5C])[sp].d(T)[sp].d([m5C])[sp].d([m5C])[sp].d(A)[sp].d(T)[sp].[moe](A)p.[moe](G)p.[moe]([m5C])[sp].[moe]([m5C])}$$$$ (last 3' nucleoside missing)”, the 3 h FOB score amounted to 1.33 score 0-7.
Regarding “RNA1{[moe](G)[sp].[moe](G)p.[moe](T)p.[moe]([m5C])p.[moe](T)p.d([m5C])[sp].d(T)[sp].d(T)[sp].d(A)[sp].d(G)[sp].d([m5C])[sp].d(T)[sp].d(T)[sp].d(T)[sp].d([m5C])[sp].[moe](T)p.[moe]([m5C])p.[moe](T)[sp].[moe](T)}$$$$ (last 3' nucleoside missing)”, the 3 h FOB score was determined as 4 score 0-7.
